Measured values as given in patent US8476319B2, “Methods of treating ear infections” (3M Innovative Properties Company, priority 2005, dated 2013).

Experiments:
[1] = Transport through the tympanic membrane, GC of saline recovered from middle ear; assay type: in vivo, chinchilla; conditions: for formulation component detected by GC in saline recovered from the middle ear: Example 2 formulation in outer ear next to tympanic membrane, samples at 15, 30, 60 min
Procedure: Example 2 formulation was evaluated for transportability across the ear drum (tympanic membrane) and into the middle ear with an animal model test using chinchillas (400 g to 500 g). A cotton plug saturated with Example 2 formulation was placed against the outer ear membrane of a chinchilla. An opening was made into the middle ear through the bulla and 1 mL saline was placed in the middle ear. At 15, 30, and 60 min. the saline was withdrawn and replaced with fresh saline. Tympanometry was completed before and after the test compositions were applied to ensure the tympanic membrane was intact (without perforations). The saline samples were kept at 4° C. until assayed.
GC Analysis: Six samples of saline recovered from the middle ear of a chinchilla were analyzed by GC. They were recovered from both the left and right ears of the test animal at 15, 30, and 60 min after an antibacterial formulation was placed in the outer ear next to the tympanic membrane. The GC analysis detected the formulation components of GML, FINSOLV NT, and benzoic acid.
Standard preparation: A single external standard of GML (Medchem—97%) at 1 mg/mL was prepared in CHCl3. Standards of methyl benzoate and FINSOLV NT were also available. Saline (0.9% NaCl) was prepared in the lab.
Sample Extraction: The six samples were contained in 1.5 mL clear plastic micorcentrifuge tubes. The 30- and 60-min samples were clear while the 15-min samples contained a water insoluble residue (there appeared to be so much antimicrobial composition in the sample collected a separate phase was noted by the analyst). The liquid was vortexed and transferred to separate 10 mL graduated clinical centrifuge tubes and the volume recorded. The sample tubes were rinsed once with approximately 0.5 mL saline vortexed and transferred to the centrifuge tube. The microtubes were rinsed a second time with approximately 0.75 mL chloroform which was also transferred to the clinical centrifuge tube. The chloroform dissolved the residue in the 15 min samples. The liquid level in the centrifuge tubes was brought to 1.7 mL by the addition of saline solution. A sample (4.5 mL) of CHCl3 was then added to the centrifuge tubes using a 5-mL graduated glass pipette. The tubes were then sealed with TEFLON screw cap tops and vortexed for 2 min. They were then centrifuged in an IEC clinical centrifuge until 2 clear phases formed (approximately 5 min). Using Pasture pipettes, the lower (organic) phases were quantitatively transferred to a set of preweighed 7-mlL vials. The extracts were treated with diazomethane (DAM) which formed the methyl esters of acids present, in this case methyl benzoate from benzoic acid present. Extracts were placed on a warm heating block and taken to dryness under a stream of nitrogen. Once constant weight was obtained, the samples were re-weighed and the net weight was recorded. Using a graduated pipette enough CHCl3 was added back to the 15 min extracts to achieve a concentration of 1 mg/mL in GML. The 30 and 60 min samples had much less weight so an arbitrary ½ mL of CHCl3 was added. An aliquot of each sample was then transferred to an autosampler vial and analyzed by GC using the conditions below. Gas Chromatography: • Instrument—HP 5890 • Column—15 meter STABILWAX-DA, 0.25 μm film 0.25 mm ID • Carrier—He, 2.07×10^5 N/m^2(30 psi) constant pressure • Injection—2 μL split 1:60, injector temp 250° C. • Liner—Restek SILTEK deactivated liner with SILTEK • deactivated glass wool (catalog number 22406-213.5) • Program—110° C. initial, 7° C./min to 250°, hold 10 minutes • Detector—FID at 250° C.
The total recovered GML was determined by direct GC analysis of the fractions. […] As indicated above a standard of methyl benzoate was substituted for benzoic acid. The components have been identified and the FINSOLV TN contributes most of the peak area. […]

[2] = test system: Organ of Corti hair cells; assay: Ototoxicity testing in chinchillas (trans bullar injection, Organ of Corti surface preparation); conditions: 0.1 cc into middle ear, two injections, 17 days
Source text: Initial screening of selected components for ototoxic effect was preformed using chinchillas. The compounds or compounds plus vehicle were placed in proximity to the round window membrane of the chinchilla and the tissues evaluated for ototoxic insult.
General Test Procedure: Chinchillas were mildly anesthetized using 0.1 cc IM ketamine. The skin overlying the ventral aspect of the left and right bulla were shaved and surgically prepped. An amount (0.1 cubic centimeter (cc)) of the test material was placed in the middle ear near the round window niche using a 1 cc syringe with a 23 guage needle by trans bullar injection. Three days later the procedure was repeated using the same test material in each ear. Fourteen days after the second injection (total survival time=17 days) the animals were sacrificed. The bullae were removed, the cochlea isolated and perfused with fixative through the round window membrane. After standard preparation (fixation and decalcification) the samples were dissected and the Organ of Corti isolated and evaluated for ototoxic insult. The surface preparation analysis of the Organ of Corti is a universally accepted method of evaluating hair cell loss due to ototoxic insult. The chinchilla is the standard test animal used and a 14 day survival time is adequate to screen for gross hair cell disruption due to ototoxic effect. The materials were tested in both a right and left ear but using two different animals.
This served as a positive control.

[3] = recovered from middle ear saline 15 minutes after Example 2 formulation placed against tympanic membrane
[4] = recovered from middle ear saline 30 minutes after Example 2 formulation placed against tympanic membrane
[5] = total of 15, 30 and 60 minute samples, Example 2 formulation

Molecule: CCCCCCCCCCCC(=O)OCC(O)CO (stereo not drawn) [GML, Glycerol monolaurate]
- formulation component detected by GC in saline recovered from the middle ear [1]: detected
- Left ear GML [1, 3]: 10.3 mg
- Right ear GML [1, 3]: 2.35 mg
- Left ear GML [1, 4]: 0.03 mg
- Right ear GML [1, 4]: 0.98 mg
- Left ear GML (mg), Total [1, 5]: 10.33 mg
- Right ear GML (mg), Total [1, 5]: 3.33 mg
- Ototoxicity Result ([2]; 0.5% in water): No toxicity (no toxicity (rating 1))
- Ototoxicity Result ([2]; 1% / 1.0% in water): No toxicity (no toxicity (rating 1))
- Ototoxicity Result ([2]; 1% in IPM): Toxic (toxic (rating 2-4))

Molecule: O=C(O)c1ccccc1 [benzoic acid, Benzoic acid]
- formulation component detected by GC in saline recovered from the middle ear [1]: detected

Molecule: CCCCC(CC)COC(=O)CC(C(=O)OCC(CC)CCCC)S(=O)(=O)[O-].[Na+] (stereo not drawn) [GEMTEX (DOSS), Dioctylsulfosuccinate, sodium salt]
- Ototoxicity Result ([2]; 1% / 1.0% in water): Toxic (toxic (rating 2-4))

Molecule: CCCCCCCCCCCCCC(=O)OC(C)C [IPM, Isopropyl myristate]
- Ototoxicity Result ([2]; 100%): Toxic (toxic (rating 2-4))

Molecule: Propylene glycol monocaprylate [PG monocaprylate]
- Ototoxicity Result ([2]; 0.25% in water): No toxicity (no toxicity (rating 1))
- Ototoxicity Result ([2]; 1% / 1.0% in water): No toxicity (no toxicity (rating 1))
